Results from patent US5328913A, “Minoxidil analogs as inhibitors of cell proliferation and lysyl hydroxylase” (priority 1992, dated 1994).
Where a name gives a salt, the structure may show the parent alone.

What was measured:
prolyl hydroxylase = assay: Prolyl hydroxylase activity in extracts of treated human skin fibroblasts (Example 1, tritium-release assay); format: cell-based; details: cultured fibroblasts, 72 h, Example 1
Experimental: (§1) Cultures of human skin fibroblasts grown to confluence were incubated for 72 h in medium supplemented with 1% ethanol containing various concentrations of minoxidil or deoxyminoxidil as indicated. Cells were then harvested, and the enzyme activities in extracts of these cells were measured by tritium-release assays (Murad and Pinnell, J. Biol. Chem. 262:11,973 (1987)). The results are expressed as percentages of zero-concentration values.
as §1, with “with 1% acetone containing various concentrations of minoxidil sulfate,” for “deoxyminoxidil”, “tritium release” for “tritium-release”
(§2) Skin fibroblast cultures derived from an apparently normal child (GM05659) were obtained from the Institute for Medical Research, Camden, N.J. The cells were subcultured by trypsinization and used before 25 population doublings. Typically, 4×10^5 cells were seeded onto 100-mm (diameter) plastic petri dishes and allowed to grow in 10 ml of Dulbecco's modified Eagle's minimum essential medium containing 5.6 mM glucose, buffered in pH 7.4 with 24 mM sodium biocarbonate/25 mM Hepes and supplemented with 20% (v/v) calf serum which had been inactivated for 30 min at 56° C. The cells were incubated at 37° C. in a humidified atmosphere of 5% CO2 plus 95% air.
(§3) After a week, the medium was replaced with medium supplemented with 0.5% heat-inactivated diaylzed calf serum, and the incubation was continued for 72 h in the presence of minoxidil or one of its structural analogs. The compounds were dissolved in 95% ethanol, except minoxidil sulfate which was dissolved in acetone; the final solvent concentration was 1% (v/v). During the last 3 h of incubation, cells received 100 μM Na L-ascorbate to ensure complete hydroxylation of the polypeptide precursors of precollagen (Murad et al, J. Invest. Dermatol. 75:404 (1980)).
The medium was then removed and the cells were washed twice with a solution containing 0.14 M NaCl, 5 mM KCl, 0.3 mM Na2 PO4, and 0.4 mM KH2 PO4, adjusted to pH 7.4. […] The trypsinization was terminated with 2 vol of 20% serum-supplemented medium, and the cell number in an aliquot of the suspension was determined using a Coulter counter. […]
(§4) The protein content of cell extracts was determined by a dye-binding technique using Bio-Rad reagent and protein standard (Bradford, Anal. Biochem. 72:248 (1976)).

lysyl hydroxylase [1] = target: T1, lysyl hydroxylase (Homo sapiens, UniProt Q02809); assay: Direct inhibition of enzyme activity in vitro / mixing experiments with cell extracts; format: biochemical
T1 sequence (Q02809 19-727): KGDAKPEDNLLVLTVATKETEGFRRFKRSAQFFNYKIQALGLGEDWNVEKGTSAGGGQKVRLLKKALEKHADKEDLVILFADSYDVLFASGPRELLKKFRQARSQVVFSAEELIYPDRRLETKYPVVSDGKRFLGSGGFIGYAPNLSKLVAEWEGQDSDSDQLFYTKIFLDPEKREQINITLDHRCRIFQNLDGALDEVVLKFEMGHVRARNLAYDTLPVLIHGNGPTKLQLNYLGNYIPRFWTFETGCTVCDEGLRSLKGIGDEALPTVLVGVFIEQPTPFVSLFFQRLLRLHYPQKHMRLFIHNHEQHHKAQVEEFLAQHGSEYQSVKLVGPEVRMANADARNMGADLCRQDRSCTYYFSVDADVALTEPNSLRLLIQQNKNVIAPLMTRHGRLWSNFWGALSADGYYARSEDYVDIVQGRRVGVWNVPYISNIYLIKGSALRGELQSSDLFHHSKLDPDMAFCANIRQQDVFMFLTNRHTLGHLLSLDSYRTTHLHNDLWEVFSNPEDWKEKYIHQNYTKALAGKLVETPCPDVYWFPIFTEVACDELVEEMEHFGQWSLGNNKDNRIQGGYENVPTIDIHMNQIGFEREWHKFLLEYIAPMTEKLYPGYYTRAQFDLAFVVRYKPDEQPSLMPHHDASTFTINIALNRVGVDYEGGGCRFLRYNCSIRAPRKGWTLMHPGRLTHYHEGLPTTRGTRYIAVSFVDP

lysyl hydroxylase [2] = assay: Lysyl hydroxylase activity in extracts of treated human skin fibroblasts (Example 1, tritium-release assay); format: cell-based; details: cultured fibroblasts, 72 h, Example 1
Experimental: as §1
as §1, with “with 1% acetone containing various concentrations of minoxidil sulfate,” for “deoxyminoxidil”, “tritium release” for “tritium-release”
as §2, §3
The medium was then removed and the cells were washed twice with a solution containing 0.14 M NaCl, 5 mM KCl, 0.3 mM Na2 PO4, and 0.4 mM KH2 PO4, adjusted to pH 7.4. The cells were detached from the plates with a solution containing 0.05% trypsin, 0.54 mM EDTA, 5.5mM glucose, 6.90mM NaHCO3, […], and 5 mM KCl. The trypsinization was terminated with 2 vol of 20% serum-supplemented medium, and the cell number in an aliquot of the suspension was determined using a Coulter counter.
The detached cells were collected by centrifugation at 500g for 6 min at 4° C. washed twice by suspending in phosphate-buffered NaCl/KCl as above, and then centrifuged. The cell pellet was suspended in a medium (1 ml/5×10^6 cells) containing 0.2 M NaCl, 0.1 M glycine, 50 μM dithiothreitol, 20 mM Tris-HCl, buffer (pH 7.5), 0.1% Triton X-100, and 0.01% soybean trypsin inhibitor. The suspension was sonicated for 30 s using a Branson sonifier cell disrupter. The lysate was centrifuged at 27,000g for 1 h at 4° C., and the resulting supernatant was used for prolyl and lysyl hydroxylase assays (Murad and Pinnell, J. Biol. Chem. 262:11, 973 (1987)). The enzyme activities are based on a unit of soluble cell protein.
as §4
Note: Cultures of human skin fibroblasts grown to confluence were
incubated for 72 h in medium supplemented with 1% ethanol containing 1 mM
of the indicated compounds. Cells were then harvested, and the enzyme
activity in extracts of these cells was measured by a tritiumrelease
incubated for 72 h in medium supplemented with 1% ethanol containing 1 nM

[3] = Solubility with acetone as solvent; format: physicochemical; details: acetone as the solvent; concentrations higher than 500 μM could not be tested

effect on prolyl hydroxylase activity (in words) (prolyl hydroxylase): no change in prolyl hydroxylase activity
solubility (in words) [3]: limited solubility
Compound: Nc1cc(N2CCCCC2)nc(N)[n+]1OS(=O)(=O)[O-] [Minoxidil sulfate]
inhibition of lysyl hydroxylase activity in vitro (in words) (lysyl hydroxylase [1]): failed to inhibit lysyl hydroxylase activity in vitro
effect on lysyl hydroxylase activity (in words) (lysyl hydroxylase [2]): suppressed lysyl hydroxylase activity in a manner almost identical to that observed with minoxidil
